Experimental data as given in US20080254497A1, “Response Predictors for Erbb Pathway-Specific Drugs” (MONOGRAM BIOSCIENCES, INC., priority 2004, published 2008).

Legend:
[1] = test system: activation of EGFR, erbB2, Erk1/2, and Akt; details: treatment of tumor xenografts; cited from earlier work
[2] = test system: human cell lines (head and neck, breast, and gastric); details: cited from earlier work
Her1 phosphorylation = test: Releasable molecular tag assay of cell lysates for Her1 phosphorylation; format: cell-based, human; details: BT-20 cells, increasing ligand concentration, FIG. 6B
Experimental: Sample preparation was carried out essentially as described in Example 2.
Assay design: A monoclonal antibody specific to the receptor is separately conjugated with either a molecular tag or biotin (that is then linked to a photosensitizer via an avidin bridge), so that the cleaving probe and a binding compound compete to bind to the same epitope in this example. Another binding compound is used that consists of a second antibody recognizing an overlapping epitope on the receptor, so that a ratiometric signal can be generated as a measure of homodimerization. The signal derived from the second antibody also provides a measure of the total amount of receptor in a sample. The total amount of receptor is determined in a separate assay well. Receptor phosphorylation can be quantified together with either homodimerization or total receptor amount.
The assay volume is 40 ul and the general procedure is similar to that of Example 2. Two assay wells, A and B, are set up for each sample to quantify homodimerization and total amount of receptor separately.
• Pro10_anti-Her-1: 0.05-0.1 ug/ml • Pro2_anti-phospho-Tyr: 0.1 ug/ml • Biotin_anti-Her-1: 1-2 ug/ml
7.5.2 Data Analysis: • 1. Normalize RFU signal of each molecular tag against CE reference standard A315. • 2. Subtract RFU of “no lysate” background control from corresponding molecular tag signals. • 3. […]

[3] = test system: Her receptor phosphorylation; test: Fixed cell pellet sections, receptor phosphorylation; format: cell-based, human; details: 100 nM vs non-stimulated
Experimental: In this example, model fixed tissues made from pelleted cell lines were assayed for the presence of Her receptor dimers. The assay design for heterodimers was essentially the same as that described in FIG. 4A, with exceptions as noted below. That is, four components are employed: (i) a cleaving probe comprising a biotinylated monoclonal antibody conjugated to a cleavage-inducing moiety (in this example, a photosensitizer-derivatized streptavidin, as illustrated in FIG. 3E) and specific for one of the receptors of the dimer, (ii) a monoclonal antibody derivatized with a first molecular tag and specific for the same receptor as the cleaving probe, (iii) a monoclonal antibody derivatized with a second molecular tag and specific for the receptor opposite to that the cleaving probe is specific for, and (iv) a monoclonal antibody derivatized with a third molecular tag and specific for an intracellular phosphorylated tyrosine. The assay design for homodimers was essentially the same as that described in FIG. 1D, with exceptions as noted below.
In each case, model fixed tissues were prepared as follows: cells grown on tissue culture plates were stimulated with either EGF or HRG as described in the prior examples, after which they were washed and removed by scrapping. […]

Her2-Her3 heterodimers = target: T1, Her2-Her3 heterodimers (Homo sapiens, UniProt P21860); test: Releasable molecular tag assay of cell lysates for Her2-Her3 heterodimers; format: cell-based; details: MCF-7 cells, increasing ligand concentrations, 10 minutes at 37° C., FIG. 4C
T1 construct: endogenous in cells; host or cells: MCF-7
Experimental: Measurements are made using three binding compounds and a cleaving probe as described below.
7.3.1 Sample Preparation: • 1. Serum-starve breast cancer cell line culture overnight before use. • 2. […] Aspirate culture media, transfer onto ice, and add lysis buffer to lyse cells in situ. • 4. Scrape and transfer lysate to microfuge tube. Incubate on ice for 30 min. Microfuge at 14,000 rpm, 4° C., for 10 min. (Centrifugation is optional.) • 5. Collect supernatants as lysates and aliquot for storage at −80° C. until use.
Assay design: As illustrated diagrammatically in FIG. 4A, Her2-Her3 heterodimers (900) are quantified ratiometrically based on the binding of cleaving probe (902) and binding compounds (904), (906), and (908). A photosensitizer indicated by “PS” is attached to cleaving probe (902) via an avidin-biotin linkage, and binding compounds (904), (906), and (908) are labeled with molecular tags Pro14, Pro10, and Pro11, respectively. Binding compound (904) is specific for a phosphorylation site on Her3.
The total assay volume is 40 ul. The lysate volume is adjusted to 30 ul with lysis buffer. […]
7.3.3 Data Analysis: • 1. Normalize relative fluorescence units (RFU) signal of each molecular tag against CE reference standard A315 (a fluorescein-derivatized deoxyadenosine monophosphate that has known peak position relative to molecular tags from the assay upon electrophoretic separation). • 2. […]

Compound | activation of EGFR, erbB2, Erk1/2, and Akt in tumor xenografts [1] | IC90, growth inhibition of human cell lines ([2]; head and neck, breast, and gastric cell lines in vitro) | outgrowth following cessation of treatment ([2]; up to 18 days following cessation of treatment) | quantity of Her1 phosphorylation (Her1 phosphorylation) | Her receptor phosphorylation ([3]; fixed pellets of 22Rv1 cells, FIG. 15D) | intracellular phosphorylation ([3]; fixed pellets of MDA-MB-468 cells, FIG. 15A) | quantity of Her2-Her3 heterodimers (Her2-Her3 heterodimers)
CS(=O)(=O)CCNCc1ccc(-c2ccc3ncnc(Nc4ccc(OCc5cccc(F)c5)c(Cl)c4)c3c2)o1 [GW572016] | inhibition | < 1.313 µg/mL | no outgrowth observed | – | – | – | –
EGF: epidermal growth factor, peptide that binds to the cell-surface EGFR; used to stimulate cell lines | – | – | – | increases | up-regulation | increases | essentially no change
